Some test systems named below: SNB-78 CNS; M14 melanoma; XF 498 CNS; HOP-18 NSCLC; M19-MEL melanoma; DLD-1 colon; DMS 114 small cell lung; HCC-2998 colon; KM20L2 colon; NCI-H522 lung; LXFL 529 NSCLC; DMS 273 small cell lung; DU-145 prostate; T-47D breast; RXF-631 renal.
What all share (experiment): DTP human tumour cell line panel, 48 h

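In this assay, cells in 96-well plates receive the compound at five concentrations for 48 hours. Endpoints are linearly interpolated between the surrounding concentrations. The concentration for full growth arrest is given as TGI.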

In PubChem BioAssay (NCI) one finds TGI data, which are given here for twelve compounds.

A word on the TGI: it is the concentration at which net growth stops.

On to `COc1cc(O)c2c(c1O)C(=O)c1cc(C)ncc1C2=O`, for which the TGI in the test with SNB-78 CNS was over 50 µM; in the test with M14 melanoma, over 50 µM; with XF 498 CNS it was over 50 µM; in the test with HOP-18 NSCLC it was over 50 µM; in the test with M19-MEL melanoma, 23.8 µM; with DLD-1 colon, over 50 µM. The TGI in the test with DMS 114 small cell lung, in the test on HCC-2998 colon, with KM20L2 colon, in the test on NCI-H522 lung and with LXFL 529 NSCLC was over 50 µM each time.

In the case of `Cc1n(-c2ccccc2)c2c([n+]1Cc1ccc([N+](=O)[O-])cc1)C(=O)c1ccccc1C2=O`, the concentration for total growth inhibition (TGI) in the test on SNB-78 CNS stood at 6.88 µM; in the test with M14 melanoma, 7 µM; with DMS 273 small cell lung, 3.87 µM; in the test with DU-145 prostate, 3.28 µM; in the test on HOP-18 NSCLC, 17.7 µM; in the test on M19-MEL melanoma it was 2.93 µM. Further, the TGI in the test on DLD-1 colon is 19.4 µM; with DMS 114 small cell lung it was 1.49 µM; with HCC-2998 colon, 4.2 µM; with KM20L2 colon it was 9.84 µM; in the test with NCI-H522 lung, 1.67 µM; in the test on T-47D breast it was 3.43 µM. This compound also showed a concentration for total growth inhibition (TGI) with LXFL 529 NSCLC of 2.76 µM.

Regarding `Cc1ccc(C(O)/C(=N/N)c2nc3ccc([N+](=O)[O-])cc3[nH]c2=O)cc1` (centres undefined), the TGI in the test with SNB-78 CNS, in the test on M14 melanoma, with DMS 273 small cell lung, with XF 498 CNS, with M19-MEL melanoma and in the test on DLD-1 colon was over 100 µM throughout. Moreover, the TGI with DMS 114 small cell lung, with HCC-2998 colon, in the test with KM20L2 colon, in the test on NCI-H522 lung and in the test on LXFL 529 NSCLC was over 100 µM in each case.

For the compound `O=c1nc(-c2ccccc2)scc1-c1ccccc1`, the TGI in the test on M14 melanoma, in the test on XF 498 CNS, with HOP-18 NSCLC, with M19-MEL melanoma, in the test with DLD-1 colon and in the test on DMS 114 small cell lung was over 100 µM each time. The TGI in the test on KM20L2 colon, in the test on NCI-H522 lung, with RXF-631 renal and in the test on LXFL 529 NSCLC was over 100 µM each time.

For the compound `CCN1C(=O)C(N=[N+]=[N-])(c2ccccc2)C(=O)c2ccccc21` (centres undefined), the total growth inhibition concentration (TGI) in the test with SNB-78 CNS is over 100 µM; in the test on M14 melanoma, over 100 µM; in the test with DMS 273 small cell lung it was over 100 µM; in the test on XF 498 CNS it was 33 µM; in the test on HOP-18 NSCLC, over 100 µM; in the test with M19-MEL melanoma, over 100 µM. In addition, the TGI with DLD-1 colon, with DMS 114 small cell lung, with HCC-2998 colon, in the test on KM20L2 colon, in the test on NCI-H522 lung and in the test on LXFL 529 NSCLC was over 100 µM in each case.

In the case of `CC(=O)O[C@]12CCCCC1C1(O)C(O)CCCC[C@H]12` (some centres undefined), the TGI in the test with SNB-78 CNS, in the test with M14 melanoma, with DMS 273 small cell lung, with HOP-18 NSCLC, in the test on M19-MEL melanoma and in the test with DMS 114 small cell lung was over 100 µM in each case. Besides, the TGI in the test with KM20L2 colon, with NCI-H522 lung and in the test with LXFL 529 NSCLC was over 100 µM in each case.

In the case of `COC(=O)C(C(=O)C(=O)Nc1ccc([N+](=O)[O-])cc1)c1nc2cc(C)c(C)cc2[nH]c1=O` (centres undefined), the TGI in the test with SNB-78 CNS, in the test on M14 melanoma, with XF 498 CNS, with HOP-18 NSCLC, with M19-MEL melanoma and in the test with DLD-1 colon was over 100 µM each time. In addition, the TGI with DMS 114 small cell lung, with HCC-2998 colon, with KM20L2 colon, in the test on NCI-H522 lung and in the test on LXFL 529 NSCLC was over 100 µM throughout.

For `Nc1ccn(CC(CO)CC(c2ccccc2)P(=O)(O)O)c(=O)n1` (centres undefined), the TGI in the test on SNB-78 CNS, in the test on M14 melanoma, in the test on DMS 273 small cell lung, in the test with XF 498 CNS, in the test on HOP-18 NSCLC and in the test on M19-MEL melanoma was over 100 µM each time. Further, the TGI in the test on DLD-1 colon, in the test on DMS 114 small cell lung, with HCC-2998 colon, with KM20L2 colon, with NCI-H522 lung and in the test with LXFL 529 NSCLC was over 100 µM in each case.

Turning to `CCOc1ccc(N=Nc2c(-c3ccccc3)nn(C(=O)CC(=O)Nc3cccc(C)c3)c2-c2ccccc2)cc1`, the TGI with SNB-78 CNS, in the test with M14 melanoma, in the test on DMS 273 small cell lung, with XF 498 CNS, in the test with HOP-18 NSCLC and with DLD-1 colon was over 100 µM in each case. Further, the TGI in the test on DMS 114 small cell lung, in the test with HCC-2998 colon, in the test on KM20L2 colon, with NCI-H522 lung, with RXF-631 renal and in the test with LXFL 529 NSCLC was over 100 µM each time.

On to `CSC1CC2C(CC1(C)SC)C2(C)C` (centres undefined), for which the TGI in the test on SNB-78 CNS was over 100 µM; with M14 melanoma, over 100 µM; in the test with DMS 273 small cell lung, over 100 µM; with XF 498 CNS it was 50.8 µM; in the test with M19-MEL melanoma, over 100 µM; in the test on DLD-1 colon, over 100 µM. The TGI with HCC-2998 colon, in the test with NCI-H522 lung and in the test with LXFL 529 NSCLC was over 100 µM in each case.

Turning to `COc1cc2c(cc1OC)C1(c3ccccc3)ON=C(c3ccccc3)N1CS2` (centres undefined), the TGI with SNB-78 CNS, in the test with M14 melanoma, in the test on DMS 273 small cell lung, with XF 498 CNS, in the test on HOP-18 NSCLC and with M19-MEL melanoma was over 100 µM each time. Moreover, the total growth inhibition concentration (TGI) in the test with DLD-1 colon, in the test on DMS 114 small cell lung, in the test with HCC-2998 colon, in the test with KM20L2 colon, in the test on NCI-H522 lung and with RXF-631 renal was over 100 µM throughout. In addition, the TGI in the test with LXFL 529 NSCLC was over 100 µM.

On to `NC(N)=NCCCC(NCc1c2ccccc2[n+]([O-])c2ccccc12)C(=O)O` (centres undefined), for which the TGI in the test on SNB-78 CNS, in the test with M14 melanoma, with DMS 273 small cell lung, in the test with HOP-18 NSCLC, with DLD-1 colon and in the test with DMS 114 small cell lung was over 100 µM throughout. Moreover, the TGI in the test on HCC-2998 colon, with KM20L2 colon, in the test with NCI-H522 lung, in the test on RXF-631 renal and in the test on LXFL 529 NSCLC was over 100 µM each time.
